Data on 16 compounds can be found in patent US8889682B2, “Inhibitors of bruton'S tyrosine kinase” (Hoffmann-La Roche Inc., priority 2011, dated 2014).

This experiment concerns B cell receptor-mediated activation of B cells in human blood (CD69 expression). The experiment in a line: Inhibition of B cell activation in whole blood measured by CD69 expression. The conditions noted are these: anti-IgM stimulation, 20 hours, CD69-positive cells that are also CD20-positive, read-out: HWB IC50. The class given is cell-based. The method, then:
Inhibition of B Cell Activation in Whole Blood Measured by CD69 Expression
A procedure to test the ability of Btk inhibitors to suppress B cell receptor-mediated activation of B cells in human blood is as follows:
Human whole blood (HWB) is obtained from healthy volunteers, with the following restrictions: 24 hr drug-free, non-smokers. Blood is collected by venipuncture into Vacutainer tubes anticoagulated with sodium heparin. Test compounds are diluted to ten times the desired starting drug concentration in PBS […], followed by three-fold serial dilutions in 10% DMSO in PBS to produce a nine point dose-response curve. […] HWB (100 μl) is added to each well, and after mixing the plates are incubated at 37 C, 5% CO2, 100% humidity for 30 minutes.
Included are induced control, unstained and single stains for compensation adjustments and initial voltage settings. […] Supernatants are removed via suction and the remaining pellets are lysed again with another 1 ml of 1× Pharmingen Lyse Buffer, and plates are spun down as before. Supernatants are aspirated and remaining pellets are washed in FACs buffer (PBS+1% FBS). […] Samples are transferred to a 96 well plate suitable to be run on the HTS 96 well system on the BD LSR II flow cytometer.
Using appropriate excitation and emission wavelengths for the fluorophores used, data are acquired and percent positive cell values are obtained using Cell Quest Software. Results are initially analyzed by FACS analysis software (Flow Jo).
As for `CN1CCn2nc(Nc3cc(-c4ccnc(-n5ncc6cc(C(C)(C)C)cc(F)c6c5=O)c4CO)nn(C)c3=O)cc2C1` [Compound I-18, 6-tert-Butyl-8-fluoro-2-{3-hydroxymethyl-4-[1-methyl-5-(5-methyl-4,5,6,7-tetrahydro-pyrazolo[1,5-a]pyrazin-2-ylamino)-6-oxo-1,6-dihydro-pyridazin-3-yl]-pyridin-2-yl}-2H-phthalazin-1-one], the IC50 worked out at 29 nM. Next, `CN1CCn2nc(Nc3cc(-c4ccnc(-n5ncc6cc(C(C)(C)C)ccc6c5=O)c4CO)nn(C)c3=O)cc2C1` [Compound I-19, 6-tert-Butyl-2-{3-hydroxymethyl-4-[1-methyl-5-(5-methyl-4,5,6,7-tetrahydro-pyrazolo[1,5-a]pyrazin-2-ylamino)-6-oxo-1,6-dihydro-pyridazin-3-yl]-pyridin-2-yl}-2H-phthalazin-1-one]: 24 nM. The figure for `CN1CCn2nc(Nc3cc(-c4ccnc(-n5ccc6cc(C7CC7)cc(F)c6c5=O)c4CO)nn(C)c3=O)cc2C1` [Compound I-20, 6-Cyclopropyl-8-fluoro-2-{3-hydroxymethyl-4-[1-methyl-5-(5-methyl-4,5,6,7-tetrahydro-pyrazolo[1,5-a]pyrazin-2-ylamino)-6-oxo-1,6-dihydro-pyridazin-3-yl]-pyridin-2-yl}-2H-isoquinolin-1-one] is 74 nM; for `Cn1nc(-c2ccnc(-n3ncc4cc(C(C)(C)C)cc(F)c4c3=O)c2CO)cc(Nc2cc3n(n2)CCN(C2COC2)C3)c1=O` [Compound I-21, 6-tert-Butyl-8-fluoro-2-{3-hydroxymethyl-4-[1-methyl-5-(5-oxetan-3-yl-4,5,6,7-tetrahydro-pyrazolo[1,5-a]pyrazin-2-ylamino)-6-oxo-1,6-dihydro-pyridazin-3-yl]-pyridin-2-yl}-2H-phthalazin-1-one] it is 18 nM; for `CCN1CCn2nc(Nc3cc(-c4ccnc(-n5ncc6cc(C(C)(C)C)cc(F)c6c5=O)c4CO)nn(C)c3=O)cc2C1` [Compound I-22, 6-tert-Butyl-2-{4-[5-(5-ethyl-4,5,6,7-tetrahydro-pyrazolo[1,5-a]pyrazin-2-ylamino)-1-methyl-6-oxo-1,6-dihydro-pyridazin-3-yl]-3-hydroxymethyl-pyridin-2-yl}-8-fluoro-2H-phthalazin-1-one] it is 44 nM. The figure for `CN1CCn2nc(Nc3cc(-c4ccnc(-n5ccc6cc(C(C)(C)C)cc(F)c6c5=O)c4CO)nn(C)c3=O)cc2C1` [Compound I-23, 6-tert-Butyl-8-fluoro-2-{3-hydroxymethyl-4-[1-methyl-5-(5-methyl-4,5,6,7-tetrahydro-pyrazolo[1,5-a]pyrazin-2-ylamino)-6-oxo-1,6-dihydro-pyridazin-3-yl]-pyridin-2-yl}-2H-isoquinolin-1-one] is 15 nM; for `Cn1nc(-c2ccnc(-n3ccc4cc(C(C)(C)C)cc(F)c4c3=O)c2CO)cc(Nc2cc3n(n2)CCN(C2COC2)C3)c1=O` [Compound I-24, 6-tert-Butyl-8-fluoro-2-{3-hydroxymethyl-4-[1-methyl-5-(5-oxetan-3-yl-4,5,6,7-tetrahydro-pyrazolo[1,5-a]pyrazin-2-ylamino)-6-oxo-1,6-dihydro-pyridazin-3-yl]-pyridin-2-yl}-2H-isoquinolin-1-one] it is 6 nM. With `CCN1CCn2nc(Nc3cc(-c4ccnc(-n5ccc6cc(C(C)(C)C)cc(F)c6c5=O)c4CO)nn(C)c3=O)cc2C1` [Compound I-25, 6-tert-Butyl-2-{4-[5-(5-ethyl-4,5,6,7-tetrahydro-pyrazolo[1,5-a]pyrazin-2-ylamino)-1-methyl-6-oxo-1,6-dihydro-pyridazin-3-yl]-3-hydroxymethyl-pyridin-2-yl}-8-fluoro-2H-isoquinolin-1-one], the IC50 was 3 nM. Next, `Cn1nc(-c2ccnc(-n3ccc4cc(C(C)(C)C)cc(F)c4c3=O)c2CO)cc(Nc2ccc(OC(C)(C)CN3CC(F)(F)C3)cn2)c1=O` [Compound I-27, 6-tert-Butyl-2-[4-(5-{5-[2-(3,3-difluoro-azetidin-1-yl)-1,1-dimethyl-ethoxy]-pyridin-2-ylamino}-1-methyl-6-oxo-1,6-dihydro-pyridazin-3-yl)-3-hydroxymethyl-pyridin-2-yl]-8-fluoro-2H-isoquinolin-1-one]: 62 nM; `Cn1cc(-c2nccc(-n3ncc4cc(C(C)(C)C)cc(F)c4c3=O)c2CO)cc(Nc2ccc(C(=O)N3CCOCC3)cn2)c1=O` [Compound I-28, 4-(6-tert-Butyl-8-fluoro-1-oxo-1H-phthalazin-2-yl)-3-hydroxymethyl-1′-methyl-5′-[5-(morpholine-4-carbonyl)-pyridin-2-ylamino]-1′H-[2,3′]bipyridinyl-6′-one]: 74 nM. Next, `Cn1cc(-c2nccc(-n3ncc4cc(C(C)(C)C)cc(F)c4c3=O)c2CO)cc(Nc2ccc(S(C)(=O)=O)cn2)c1=O` [Compound I-29, 4-(6-tert-Butyl-8-fluoro-1-oxo-1H-phthalazin-2-yl)-3-hydroxymethyl-5′-(5-methanesulfonyl-pyridin-2-ylamino)-1′-methyl-1′H-[2,3′]bipyridinyl-6′-one]: 162 nM; `Cn1nc(-c2ccnc(-n3ncc4cc(C(C)(C)C)cc(F)c4c3=O)c2CO)cc(Nc2ccc(OC(C)(C)CN3CC(F)(F)C3)cn2)c1=O` [Compound I-30, 6-tert-Butyl-2-[4-(5-{5-[2-(3,3-difluoro-azetidin-1-yl)-1,1-dimethyl-ethoxy]-pyridin-2-ylamino}-1-methyl-6-oxo-1,6-dihydro-pyridazin-3-yl)-3-hydroxymethyl-pyridin-2-yl]-8-fluoro-2H-phthalazin-1-one]: 55 nM; `CN1CCn2nc(Nc3cc(-c4ccnc(-n5ccc6cc(C(C)(C)C#N)cc(F)c6c5=O)c4CO)nn(C)c3=O)cc2C1` [Compound I-31, 2-(8-Fluoro-2-{3-hydroxymethyl-4-[1-methyl-5-(5-methyl-4,5,6,7-tetrahydro-pyrazolo[1,5-a]pyrazin-2-ylamino)-6-oxo-1,6-dihydro-pyridazin-3-yl]-pyridin-2-yl}-1-oxo-1,2-dihydro-isoquinolin-6-yl)-2-methyl-propionitrile]: 36 nM.

`Cn1nc(-c2ccnc(-n3ccc4cc(C(C)(C)C#N)cc(F)c4c3=O)c2CO)cc(Nc2ccc(OC(C)(C)CN3CC(F)(F)C3)cn2)c1=O` [Compound I-32, 2-{2-[4-(5-{5-[2-(3,3-Difluoro-azetidin-1-yl)-1,1-dimethyl-ethoxy]-pyridin-2-ylamino}-1-methyl-6-oxo-1,6-dihydro-pyridazin-3-yl)-3-hydroxymethyl-pyridin-2-yl]-8-fluoro-1-oxo-1,2-dihydro-isoquinolin-6-yl}-2-methyl-propionitrile]: the IC50 came to 106 nM.

On to `Cn1nc(-c2ccnc(-n3ncc4cc(C(C)(C)C)ccc4c3=O)c2CO)cc(Nc2ccc(OC(C)(C)CN3CC(F)(F)C3)cn2)c1=O` [Compound I-33, 6-tert-Butyl-2-[4-(5-{5-[2-(3,3-difluoro-azetidin-1-yl)-1,1-dimethyl-ethoxy]-pyridin-2-ylamino}-1-methyl-6-oxo-1,6-dihydro-pyridazin-3-yl)-3-hydroxymethyl-pyridin-2-yl]-2H-phthalazin-1-one], for which the IC50 was found to be 212 nM. With `Cn1nc(-c2ccnc(-n3ncc4cc(C(C)(C)C)cc(F)c4c3=O)c2CO)cc(Nc2cc3n(n2)CC[N+](C)([O-])C3)c1=O` (stereo not shown) [Compound I-34, 6-tert-Butyl-8-fluoro-2-{3-hydroxymethyl-4-[1-methyl-5-(5-methyl-5-oxy-4,5,6,7-tetrahydro-pyrazolo[1,5-a]pyrazin-2-ylamino)-6-oxo-1,6-dihydro-pyridazin-3-yl]-pyridin-2-yl}-2H-phthalazin-1-one], the IC50 was 3500 nM.
